Consider one compound from patent publication US20230286979A1, “SALT OF DIHYDROPYRIDO[2,3-D]PYRIMIDINONE DERIVATIVE, PREPARATION METHOD THEREFOR, AND USE THEREOF” (NANJING CHIA TAI TIANQING PHARMACEUTICAL CO., LTD., priority 2020, published 2023).

The assay relates to AKT kinase. Put plainly: AKT kinase activity inhibition, summary statement of Test Example 1. The class given is biochemical. The settings on record: as demonstrated by Test Example 1. How it is done:
g) The plate was sealed, the reaction solution was mixed until uniform and reacted at the room temperature for 1 h, and fluorescence signals were detected by using an ENVISION (Perkinelmer) instrument (320 nm stimulation, 665 nm, 615 nm emission). An inhibition rate in each well was calculated from all active wells and background signal wells, a mean value of repetitive wells was calculated, and the half inhibitory activity (IC50) of each compound to be tested was fitted by using the professional drawing analysis software PRISM 6.0.

Each structure is given as a SMILES string.

For the compound `CC(C)NC[C@@H](C(=O)N1CCN(c2ncnc3c2[C@H](C)CC(=O)N3)[C@H]2C[C@H]21)c1ccc(Cl)cc1` (single isomer, unassigned) [Isomer 2 of Example 1], the “inhibiting effect on the AKT kinase activity” value is “has an inhibiting effect”.
